Test results published in patent US12351559B2 (Biohaven Therapeutics Ltd., priority 2014, dated 2025).

What follows are molecules tested against T1, Kv7.2/7.3 (Homo sapiens, UniProt O43525+O43526) (assay: Kv7.2/7.3 activation assay, QPatch planar patch-clamp, single concentration screen). Conditions: Kv7.2/Kv7.3 co-expressing HEK cells, compound 3 μM, steady-state current at end of 2 s pulse to −30 mV.
T1 construct: host or cells: HEK cells, tetracycline-inducible expression
Type: cell-based
Parameters: key: <1.2-fold increase over baseline (−); +/−: as a range from <1.2-fold increase over baseline (−) up to >6-fold increase over baseline (+++); as a range from <1.2-fold increase over baseline (−) up to >6-fold increase over baseline (+++); as a range from <1.2-fold increase over baseline (−) up to >6-fold increase over baseline (+++); >6-fold increase over baseline (+++)

Row | SMILES | Kv7.2/7.3 Activity: increase in current over baseline
1 | CC(C)[C@H](C)C(=O)Nc1nc2ccc(C#N)cc2n1-c1ccc(F)cn1 [Example 73, (S)-N-(6-cyano-1-(5-fluoropyridin-2-yl)-1H-benzo[d]imidazol-2-yl)-2,3-dimethylbutanamide] | +/−
2 | CC(C)c1ccc2nc(NC(=O)[C@@H](C)C(C)C)n(C3CCC3)c2c1 [Example 65, (S)—N-(1-cyclobutyl-6-isopropyl-1H-benzo[d]imidazol-2-yl)-2,3-dimethylbutanamide] | +
3 | COc1ccc2nc(NC(=O)CCC3CCCC3)n(C(C)C)c2c1 [Example 3, 3-cyclopentyl-N-(1-isopropyl-6-methoxy-1H-benzo[d]imidazol-2-yl)propanamide] | +++ (>6-fold increase over baseline (+++))
4 | Cc1cc2nc(NC(=O)CC(C)(C)C)n(C(C)(C)C)c2cc1C#N [Example 127, N-(1-(tert-butyl)-6-cyano-5-methyl-1H-benzo[d]imidazol-2-yl)-3,3-dimethylbutanamide] | +
5 | CC(C)(O)CC(=O)Nc1nc2ccc(C(F)(F)F)cc2n1-c1ccc(OC(F)(F)F)cc1 [Example 137, 3-hydroxy-3-methyl-N-(1-(4-(trifluoromethoxy)phenyl)-6-(trifluoromethyl)-1H-benzo[d]imidazol-2-yl)butanamide] | +
6 | CC(C)(C)CC(=O)Nc1nc2cccc(C(C)(C)O)c2n1C1CCC1 [Example 82, N-(1-cyclobutyl-7-(2-hydroxypropan-2-yl)-1H-benzo[d]imidazol-2-yl)-3,3-dimethylbutanamide] | +/−
7 | COc1ccc2nc(NC(=O)[C@@H](C)C(C)C)n(C(C)C)c2c1 [Example 4, (S)-N-(1-isopropyl-6-methoxy-1H-benzo[d]imidazol-2-yl)-2,3-dimethylbutanamide] | +/−
8 | Cc1cc2nc(NC(=O)C[C@](C)(O)c3ccccc3)n(C3CCC3)c2cc1C#N [Example 123, (S)-N-(6-cyano-1-cyclobutyl-5-methyl-1H-benzo[d]imidazol-2-yl)-3-hydroxy-3-phenylbutanamide] | +/−
9 | Cc1cc(-n2c(NC(=O)[C@H]3CC3(C)C)nc3ccc(C(F)(F)F)cc32)on1 [Example 45, (S)-2,2-Dimethyl-N-(1-(3-methylisoxazol-5-yl)-6-(trifluoromethyl)-1H-benzo[d]imidazol-2-yl)cyclopropanecarboxamide] | +
10 | CC(C)(C)CC(=O)Nc1nc2ccc(CC(=O)O)c(F)c2n1C1CCC1 [Example 117, 2-(1-cyclobutyl-2-(3,3-dimethylbutanamido)-7-fluoro-1H-benzo[d]imidazol-6-yl)acetic acid] | +/−
11 | CC(C)(O)CC(=O)Nc1nc2ccc(C(F)(F)F)cc2n1-c1ccc(F)c(F)c1 [Example 143, N-(1-(3,4-difluorophenyl)-6-(trifluoromethyl)-1H-benzo[d]imidazol-2-yl)-3-hydroxy-3-methylbutanamide] | ++
12 | CC1(n2c(NC(=O)C[C@@](C)(O)c3ccccc3)nc3ccc(C#N)cc32)CCC1 [Example 96, (R)-N-(6-cyano-1-(1-methylcyclobutyl)-1H-benzo[d]imidazol-2-yl)-3-hydroxy-3-phenylbutanamide] | ++
13 | C[C@H](C(=O)Nc1nc2ccc(C#N)cc2n1C1CCC1)C(C)(C)C [Example 23, (S)-N-(6-cyano-1-cyclobutyl-1H-benzo[d]imidazol-2-yl)-2,3,3-trimethylbutanamide] | ++
14 | CCOC(=O)Cc1ccc2nc(NC(=O)CC(C)(C)C)n(C3CCC3)c2c1F [Example 110, ethyl 2-(1-cyclobutyl-2-(3,3-dimethylbutanamido)-7-fluoro-1H-benzo[d]imidazol-6-yl)acetate] | +

Results, then the molecule that gave them:

Row | Kv7.2/7.3 Activity: increase in current over baseline | SMILES
15 | +/− | CC(C)(O)CC(=O)Nc1nc2ccc(C(C)(C)O)cc2n1C1CCC1 [Example 85, N-(1-cyclobutyl-6-(2-hydroxypropan-2-yl)-1H-benzo[d]imidazol-2-yl)-3-hydroxy-3-methylbutanamide]
16 | +/− | CC(C)(C)C(=O)Nc1nc2ccc(C(C)(C)O)cc2n1C1CCC1 [Example 90, N-(1-cyclobutyl-6-(2-hydroxypropan-2-yl)-1H-benzo[d]imidazol-2-yl)pivalamide]
17 | + | O=C(CC1(O)CCC1)Nc1nc2ccc(C(F)(F)F)cc2n1C1CCC1 [Example 44, N-(1-cyclobutyl-6-(trifluoromethyl)-1H-benzo[d]imidazol-2-yl)-2-(1-hydroxycyclobutyl)acetamide]
18 | + | CC(O)(CC(=O)Nc1nc2ccc(C#N)cc2n1C1CCC1)C1CCC1 (stereo not drawn) [Example 78, N-(6-cyano-1-cyclobutyl-1H-benzo[d]imidazol-2-yl)-3-cyclobutyl-3-hydroxybutanamide]
19 | +/− | CC(C)(O)c1ccc2nc(NC(=O)CC(O)(C3CC3)C3CC3)n(C3CCC3)c2c1 [Example 97, N-(1-cyclobutyl-6-(2-hydroxypropan-2-yl)-1H-benzo[d]imidazol-2-yl)-3,3-dicyclopropyl-3-hydroxypropanamide]
20 | ++ | CC(C)[C@H](C)C(=O)Nc1nc2ccc(C(C)(C)O)cc2n1C1CCC1 [Example 54, (S)-N-(1-cyclobutyl-6-(2-hydroxypropan-2-yl)-1H-benzo[d]imidazol-2-yl)-2,3-dimethylbutanamide]
21 | + | CC(C)[C@H](C)C(=O)Nc1nc2ccc(C(F)(F)F)cc2n1C1CCC1 [Example 36, (S)-N-(1-cyclobutyl-6-(trifluoromethyl)-1H-benzo[d]imidazol-2-yl)-2,3-dimethylbutanamide]
22 | + | CC(C)[C@H](C)C(=O)Nc1nc2ccc(Cl)cc2n1C1CCC1 [Example 59, (S)-N-(6-chloro-1-cyclobutyl-1H-benzo[d]imidazol-2-yl)-2,3-dimethylbutanamide]
23 | + | CC(C)(O)c1ccc2nc(NC(=O)C[C@](C)(O)c3ccccc3)n(C3CCC3)c2c1 [Example 84, (S)-N-(1-cyclobutyl-6-(2-hydroxypropan-2-yl)-1H-benzo[d]imidazol-2-yl)-3-hydroxy-3-phenylbutanamide]
24 | ++ | CC(C)(C)CC(=O)Nc1nc2ccc(C(F)(F)F)cc2n1C1CCC1 [Example 34, N-(1-cyclobutyl-6-(trifluoromethyl)-1H-benzo[d]imidazol-2-yl)-3,3-dimethylbutanamide]
25 | + | CC(C)(O)c1ccc2nc(NC(=O)C3CC34CCC4)n(C3CCC3)c2c1 (stereo not drawn) [Example 101, N-(1-cyclobutyl-6-(2-hydroxypropan-2-yl)-1H-benzo[d]imidazol-2-yl)spiro[2.3]hexane-1-carboxamide]
26 | +/− | CCC(O)(CC)c1ccc2nc(NC(=O)C3CC34CC4)n(C3CCC3)c2c1 (stereo not drawn) [Example 106, N-(1-cyclobutyl-6-(3-hydroxypentan-3-yl)-1H-benzo[d]imidazol-2-yl)spiro[2.2]pentane-1-carboxamide]
27 | + | C[C@@](O)(CC(=O)Nc1nc2ccc(Cl)cc2n1C1CCC1)c1ccccc1 [Example 100, (R)-N-(6-chloro-1-cyclobutyl-1H-benzo[d]imidazol-2-yl)-3-hydroxy-3-phenylbutanamide]
28 | +/− | C[C@](O)(C(=O)Nc1nc2ccc(C#N)cc2n1C1CCC1)C(F)(F)F [Example 16, (S)-N-(6-cyano-1-cyclobutyl-1H-benzo[d]imidazol-2-yl)-3,3,3-trifluoro-2-hydroxy-2-methylpropanamide]
29 | +/− | C[C@](O)(C(=O)Nc1nc2ccc(C(F)(F)F)cc2n1C1CCC1)C(F)(F)F [Example 42, (S)-N-(1-cyclobutyl-6-(trifluoromethyl)-1H-benzo[d]imidazol-2-yl)-3,3,3-trifluoro-2-hydroxy-2-methylpropanamide]
30 | + | CC(C)(C)CC(=O)Nc1nc2ccccc2n1C1CCC1 [Example 1, N-(1-cyclobutyl-1H-benzo[d]imidazol-2-yl)-3,3-dimethylbutanamide]
31 | + | C[C@@H](C(=O)Nc1nc2ccc(C#N)cc2n1C1CCC1)C(C)(C)C [Example 76, (R)-N-(6-cyano-1-cyclobutyl-1H-benzo[d]imidazol-2-yl)-2,3,3-trimethylbutanamide]
32 | ++ | CC1(C)C[C@@H]1C(=O)Nc1nc2ccc(C#N)cc2n1C1CCC1 [Example 11, (S)-N-(6-cyano-1-cyclobutyl-1H-benzo[d]imidazol-2-yl)-2,2-dimethylcyclopropane-1-carboxamide]

Same assay, conditions: Kv7.2/Kv7.3 co-expressing HEK cells, compound @ 1 μM

Row | SMILES | Kv7.2/7.3 Activity: increase in current over baseline
33 | CC(C)(C)CC(=O)Nc1nc2ccc(C(C)(C)O)cc2n1-c1ccc(F)cc1 [Example 104, N-(1-(4-fluorophenyl)-6-(2-hydroxypropan-2-yl)-1H-benzo[d]imidazol-2-yl)-3,3-dimethylbutanamide] | +(@ 1 μM)
